Data from patent publication US6719969B1, “Treatment of liver disease and injury with CXC chemokines” (The Regents of The University of Michigan, priority 1999, dated 2004).

B1: SCF: recombinant murine stem cell factor (protein)
chain: KEICGNPVTDNVKDITKLVANLPNDYMITLNYVAGMDVLPSHCWLRDMVIQLSLSLTTLLDKFSNISEGLSNYSIIDKLGKIVDDLVLCMEENAPKNIKESPKRPETRSFTPEEFFSIFNRSIDAFKDFMVASDTSDCVLSSTLGPEKDSRVSVTKPFMLPPVA

Tests used:
CD1 and BALB/c mice = assay: Acetaminophen lethality, pilot studies in CD1 and BALB/c mice; assay type: in vivo, mouse; settings: 400 mg/kg i.p., 12 h fast
Protocol: Protocol 2: In the second series of studies, CD1, CXCR2ko and CXCR2wt mice were allowed free access to water for 12 h prior to an i.p. injection of 400 mg/kg acetaminophen. All acetaminophen challenged mice were fasted in this manner because previous studies have shown that fasting promotes hepatic susceptibility to acetaminophen toxicity by decreasing the inactivation of chemically reactive metabolites […], allowing these metabolites to bind hepatocyte proteins and cause cell damage (Whitcomb and Block, 1994; Pessayre et al., 1979; each incorporated herein by reference). […] Two hours prior to acetaminophen challenge, CD1 mice (n=1 0/group) were injected with 0.5 ml of normal rabbit serum or anti-mouse MIP-2 antiserum, and mouse survival was monitored for the subsequent 4 days. CXCR2ko and CXCR2wt mice (n=5/group) were injected i.p. with the same dose of acetaminophen, and mouse survival was monitored for 4 days.

CBA/J mice = assay: Acetaminophen dose response in CBA/J mice; assay type: in vivo, mouse; settings: 8 h fast
Protocol: (§1) Six wk old female CBA/J mice (Jackson Laboratory, Bar Harbor, Me.) were fasted, but with free access to water, for 8 h prior to intraperitoneal (I.P.) injection of acetaminophen (Sigma) at 200 or 300 mg/kg, dissolved in normal saline. After injection, the animals were allowed free access to food. Mice were euthanized and liver was taken from the mice at various time points after acetaminophen injection into the mice.
To determine the level of acetaminophen that was necessary to induce liver damage, a dose response was performed. In these studies, normal CBA/J mice were fasted for 8 h and subsequently given an intraperitoneal injection of acetaminophen dissolved in PBS or PBS alone for control. Mouse survival was followed for 4 days when the study was terminated. 20 mice/group were used in 2 separate studies.

[1] = tested on: CBA/J mice treated with acetaminophen; assay: Exogenous SCF at lethal acetaminophen dose; assay type: in vivo, mouse
Protocol: as §1
Hepatic damage was measured using an AXIO-HOME microscope by 2 independent investigators. Sections of liver tissue (2 from each animal) were stained with hematoxylin and eosin and the area of hepatic damage was outlined and expressed as a % of total liver area examined.
In order to finally determine whether SCF has a role in protecting the animals from acetaminophen toxicity, 1 μg of recombinant murine SCF or saline was injected i.v. at the time of or within 30 min. of acetaminophen challenge. The survival of animals was recorded for 4 days and the study was terminated. % Survival data was collected from 2 separate studies with a total of 20 mice in each treatment group.

| Molecule | Lethality (CD1 and BALB/c mice) | Lethality (CBA/J mice; 200 mg/kg i.p.) | Lethality (CBA/J mice; 300 mg/kg i.p., by 48 h) | Survival ([1]; 1 ug i.v. at or within 30 min of lethal acetaminophen dose, 4 days) | Liver histology ([1]; 300 mg/kg acetaminophen, 1 ug SCF) | Hepatocyte proliferation in vitro (hepatocytes) |
| --- | --- | --- | --- | --- | --- | --- |
| CC(=O)Nc1ccc(O)cc1 [acetaminophen] | approximately 10% | no lethality | ~100% | – | – | – |
| B1 | – | – | – | 90% | no necrotic areas | can directly induce hepatocyte proliferation in vitro |
